In one assay the target is C. albicans ALS (Candida albicans, UniProt A0A1D8PJF9). Put plainly: ALS biochemical assay (CaALS).
The target in the next assay is T1, ScALS (Saccharomyces cerevisiae, UniProt P07342).
T1 construct: made in house; host or cells: E. coli BL21 (DE3), pET28a-ScILV2
As to the kind of experiment: Intact protein mass spectrometry. Type of assay: binding. To be noted: 10 μM, 30 min. From the text: We next characterized the structural basis for binding of 1 to ALS. Given the strained structure and the observed tight binding kinetics, we hypothesized that 1 may be binding covalently. Analysis of ALS from both AfALS and ScALS by intact protein mass spectrometry yielded traces with multiple proteoforms for both proteins. […] Limited proteolysis followed by peptide mapping localized the covalent attachment to the 239[…]258 peptide of ScALS with Lys251 and Asp252 (equivalent to Lys310 and Asp311 in AfALS) serving as the most likely attachment sites (Figure S7).
Biomek FX, Beckman Coulter Fullerton CA) were used to conduct serial dilutions and liquid […]
Solutions of 1 were added in an 11 point 2x serial dilution in DMSO with a maximum tested concentration of 32 μg/ml in the culture medium. Drug solution was added at 1% v/v into 200 μl […]
After digestion, the peptide mixture was immediately analysed by LC-MS/MS using a Waters I-class UPLC equipped with an ACQUITY UPLC BEH C18 column (2.1x50 mm, 1.7 µm, Waters) at 50 °C coupled to a Waters Synapt G2Si MS. […]

T1 sequence (P07342 58-687): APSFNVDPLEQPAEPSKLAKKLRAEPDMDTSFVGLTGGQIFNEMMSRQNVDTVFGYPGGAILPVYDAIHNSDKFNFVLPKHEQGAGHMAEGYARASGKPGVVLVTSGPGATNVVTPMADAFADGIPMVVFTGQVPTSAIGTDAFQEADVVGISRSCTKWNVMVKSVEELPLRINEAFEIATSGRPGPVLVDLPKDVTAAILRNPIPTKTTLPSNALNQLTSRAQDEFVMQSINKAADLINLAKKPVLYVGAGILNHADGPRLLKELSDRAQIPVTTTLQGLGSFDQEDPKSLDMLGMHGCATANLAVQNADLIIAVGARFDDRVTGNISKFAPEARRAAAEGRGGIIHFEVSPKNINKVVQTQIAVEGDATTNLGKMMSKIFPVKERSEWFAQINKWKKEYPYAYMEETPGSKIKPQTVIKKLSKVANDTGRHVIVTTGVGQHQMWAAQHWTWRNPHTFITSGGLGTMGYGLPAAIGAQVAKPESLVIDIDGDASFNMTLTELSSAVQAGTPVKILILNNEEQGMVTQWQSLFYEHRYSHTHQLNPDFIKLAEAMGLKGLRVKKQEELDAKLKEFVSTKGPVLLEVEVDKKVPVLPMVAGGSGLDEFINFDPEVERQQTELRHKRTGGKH
C. albicans ALS, sequence (A0A1D8PJF9 entry or part of it): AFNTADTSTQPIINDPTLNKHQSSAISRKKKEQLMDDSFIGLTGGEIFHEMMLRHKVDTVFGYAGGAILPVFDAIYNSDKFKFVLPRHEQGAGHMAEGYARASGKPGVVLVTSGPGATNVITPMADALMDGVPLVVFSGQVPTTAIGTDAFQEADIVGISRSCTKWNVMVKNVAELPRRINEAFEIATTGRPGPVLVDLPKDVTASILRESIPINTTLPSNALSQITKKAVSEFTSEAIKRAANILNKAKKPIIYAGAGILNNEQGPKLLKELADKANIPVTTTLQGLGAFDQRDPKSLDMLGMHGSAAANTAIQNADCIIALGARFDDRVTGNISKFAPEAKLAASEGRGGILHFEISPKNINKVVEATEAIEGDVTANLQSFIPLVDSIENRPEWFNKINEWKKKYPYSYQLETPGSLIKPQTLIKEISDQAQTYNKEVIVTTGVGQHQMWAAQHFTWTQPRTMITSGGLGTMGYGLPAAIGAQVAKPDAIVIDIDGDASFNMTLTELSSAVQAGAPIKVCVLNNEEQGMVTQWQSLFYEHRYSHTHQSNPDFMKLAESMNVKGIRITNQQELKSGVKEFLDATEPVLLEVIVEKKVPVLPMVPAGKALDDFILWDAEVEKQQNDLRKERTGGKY

A word on the IC50: it is the concentration that gives 50% inhibition. The low end stands for greater potency, the high end for weaker potency. Regarding `CCCC1C(C)=CC2CC=CC3(C)C2C1C(=O)C31C(=O)NC(CCCO)C1=O` (centres unmarked) [compound 1], the IC50 against C. albicans ALS came out at 60 ± 10 nM. Besides, the “covalent modification of ScALS (intact mass shift)” value on ScALS was “mass shifts consistent with covalent addition”.

The record behind these values is article PMC12947280, “An Antifungal with a Novel Mechanism of Action Discovered via Resistance Gene-Guided Genome Mining” (ACS Central Science, 2026).
